What was measured:
[1] = system: mice sensitized with PCP; conditions: acute low dose of PCP in mice sensitized by repeated high-dose PCP; cited from earlier work
[2] = system: oxidative stress markers (e.g., MDA and GSH); parameters: method as in PMID 27833522, PMID 27089413, PMID 22331799; conditions: amphetamine- or dizocilpine-augmented oxidative stress, mouse model of schizophrenia; cited from earlier work
[3] = system: mice with valproic acid (VPA)-induced ASD; conditions: cited from earlier work
[4] = system: BTBR and B6 mice; experiment: Spontaneous alternation behavior (SAB), Y maze; assay type: in vivo; conditions: BTBR mice; RAM 10 mg/kg i.p. co-administered with ST-2223 5 mg/kg
Protocol: (§1) The drugs tested included ST-2223 [N-(4-(4-(2-methoxyphenyl)piperazin-1-yl)butyl)-6-(3-(piperidin-1-yl)propoxy)-2-naphthamide] that was designed and synthesized in the Institute of Pharmaceutical and Medicinal Chemistry, Heinrich Heine University Düsseldorf, Germany, and in accordance with previously described methodologies (Supplementary Materials). Aripiprazole (ARP) (1 mg/kg, i.p.) and memantine (MEM, 5 mg/kg, i.p.), as reference drugs, were purchased from Sigma-Aldrich (St. Louis, MO, USA). The CNS-penetrant H3R agonist (R)-α-methylhistamine (RAM, 10 mg/kg, i.p.) was purchased from Sigma-Aldrich, St. Louis, MO, USA. T. Protease and the phosphatase inhibitor cocktail were procured from Thermo Scientific, USA. The assay kit for reduced glutathione (GSH) was obtained from Sigma-Aldrich (St. Louis, MO, USA). The lipid peroxidation assay kit for estimation of malondialdehyde (MDA) was purchased from North West Life Science (Vancouver, WA, USA). The assay kits for superoxide dismutase (SOD) and catalase (CAT) were purchased from Cayman Chemical (Ann Arbor, MI, USA). The drugs were prepared daily using 1% dimethyl sulfoxide (DMSO) in 0.9% saline, for intraperitoneal (i.p.) administration at a volume of 10 mL/kg of body weight. Vehicle treatment consisted of 1% DMSO in 0.9% normal saline. All drugs were i.p. administered 30 min before the behavioral test. The doses of these drugs were chosen based on previous reports. Neurobehavioral assessment was performed blindly with respect to experimental group and drug administration.
The SAB test is based on the exploratory strategy of rodents to explore a new environment. In examining repetitive behaviors, the Y maze test took advantage of the rodents’ natural tendency to spontaneously alternate or choose a different arm of the maze instead of the one they visited on their previous entry (i.e., least recently visited arm). A decrease in the percentage alternation can also be attributed to same arm repeated visits. Spontaneous alternation behavior was measured on a Y maze apparatus, as previously described, with slight modifications. The Y maze composed of three arms (30 cm × 6 cm × 15 cm), where the arms were labeled with letters: A, B, or C. The test mouse was placed in the center of the maze and was allowed to freely explore the maze for 8 min. The number of entries into each arm and the total number of entries were recorded by the observer. A spontaneous alternation was defined as successive entry into three arms on an overlapping triplet set. Percentage spontaneous alternation was calculated as the number of spontaneous alternations (actual alternations) over the total number of entries (possible alternations). Two arm entries were subtracted from the denominator because an alternation required at least 3 entries. The apparatus was cleaned with 70% alcohol solution after each mouse was tested. (1) Percentage spontaneous alternations=Total alternations/(Total arm entries − 2) ×100

[5] = system: BTBR and B6 mice; experiment: Self-grooming paradigm (SGP); assay type: in vivo; conditions: BTBR mice; RAM 10 mg/kg i.p. co-administered with ST-2223 5 mg/kg
Protocol: as §1
In the SGP test, mice were scored for spontaneous grooming behaviors. […] To measure SGP, each mouse was placed individually in a standard clear plastic cage (28 cm wide × 17 cm long × 12 cm high) for a total of 20 min. Mice were allowed to freely explore the cage for the entire test, the first 10 min served as a habituation period. After 10 min habituation, each mouse was scored with a stopwatch for 10 min for cumulative time spent grooming all body regions. Grooming behavior included head washing, body grooming, genital/tail grooming and paw and leg licking. The observer sat approximately 1 m from the test cage during the second 10 min of testing.

[6] = system: BTBR and B6 mice; experiment: Open field test (OFT): locomotor activity and anxiety levels; assay type: in vivo; conditions: BTBR mice
Protocol: as §1
The open field test (OFT) systematically evaluates exploration behaviors executed in a novel open field (considered as a novel environment), as an independent control for the effects of the drugs on physical activity that could confound the interpretation of the results from the self-grooming, anxiety and spontaneous alternation. Mice were allowed to freely explore an open-field arena (45 × 45 × 30 cm), to assess general locomotor activity, and anxiety-related behaviors. The center arena was defined as the central 23 × 23 cm area. Mice were given 5 min to habituate in the center area of the arena before the recording started for the actual behavioral assessments. Recording lasted for 10 min using charge-coupled device (CCD) camera-assisted motion tracking apparatus and software (EthoVision 3.1, Noldus Information Technology, The Netherlands), and the total distance moved in the whole arena, time spent in the center and periphery were recorded. Test chambers were cleaned with 70% ethanol after each trial and were allowed to dry until ethanol evaporation and odor dissipation had occurred. When interpreting the results observed in this assessment, less time spent in the center was considered as an indicator for high levels of anxiety-like behaviors and total distance travelled signified the overall locomotor activity of tested animals.

[7] = system: BTBR and B6 mice; experiment: Marble burying task (MBT); assay type: in vivo; conditions: BTBR mice
Protocol: as §1
The MBT is used for testing repetitive and compulsive behaviors as it accurately reflects repetitive digging behavior [95, 96]. The test was performed as described previously, with slight modifications. Briefly, cages (26 cm × 48 cm × 20 cm) were filled with fresh, unscented mouse bedding material to a depth of 5 cm, on top of which 20 marbles were placed in 4 rows of 5 marbles each (15 mm diameter). Before placing the marbles, the bedding surface was leveled by placing another cage of the same size onto the surface of the bedding and then each mouse was individually added for 10 min habituation. After habituation, the mouse was removed, and the marbles were carefully overlaid. The same mouse was then returned to its designated test cage and allowed to explore for 30 min. The total number of marbles buried (>50% marble covered by the bedding material) was determined at the end of the session.

[8] = RAM 10 mg/kg i.p. co-administered with ST-2223 5 mg/kg

Question: With `CN1CCCC1CCNS(=O)(=O)c1ccc2c(c1)CN(CC1CCCCC1)CC2` (centres unmarked) [SAR110894] as the compound, how does the “deficit in working memory in the Y maze test” value [1] read?
Answer: The value was “reversed”.

Question: What does the source list for `O=C(c1ccc(OCCCc2cnc[nH]2)cc1)C1CC1` [ciproxifan]?
Answer: oxidative stress markers (e.g., MDA and GSH) [2]: mitigated; repetitive behavior in the MBT ([3]; mice with VPA-induced ASD): reduced repetitive behavior

Question: Which “effect of co-administration on the ST-2223 (5 mg)-induced enhancement in alternation” value [4] does the source give for `C[C@@H](N)Cc1c[nH]cn1` [RAM, (R)-α-methylhistamine] here?
Answer: The value was “entirely reversed”.

Question: And the “effect of co-administration on the ST-2223 (5 mg)-induced decrease in time spent self-grooming” value [5]?
Answer: Its value is “nullified”.

Question: What about the “time spent in the center (OFT) vs saline-treated BTBR mice, given alone” value ([6]; RAM 10 mg/kg i.p. alone) of the same compound?
Answer: Its value is “did not induce any alternation”.

Question: What about the “effect of co-administration on the ST-2223 (5 mg)-induced increase in time spent in the center (OFT)” value [6, 8] of the same compound?
Answer: Its value is “not reversed”.

Question: What about the “marble burying behavior vs saline-treated BTBR mice, given alone” value ([7]; RAM 10 mg/kg i.p. alone) of the same compound?
Answer: Its value is “did not alter”.

Question: And the “effect of co-administration on the ST-2223 (5 mg)-stimulated decrease in percentage of buried marbles” value [7, 8]?
Answer: Its value is “reversed”.

Question: With `NC(=NCc1ccc(Cl)cc1)SCCCc1cnc[nH]1` [clobenpropit] as the compound, how does the “oxidative stress markers (e.g., MDA and GSH)” value [2] read?
Answer: The value was “mitigated”.

Question: For `CCC(C)(C)c1ccc(OCCCN2CCCCC2)cc1` [DL77], which “percentage of marbles buried” value ([3]; adult male Tuck-Ordinary mice with VPA-induced ASD features, subchronic 5, 10, 15 mg/kg, i.p.) is on record?
Answer: Its value is “significant and dose-dependent”.

Source: PMC7920280, “The Multi-Targeting Ligand ST-2223 with Histamine H3 Receptor and Dopamine D2/D3 Receptor Antagonist Properties Mitigates Autism-Like Repetitive Behaviors and Brain Oxidative Stress in Mice” (International Journal of Molecular Sciences, 2021)
